# Results published in US20080081827A1, “Use of a Pyrazole-Derived Compound that is an Antagonist for Cannabinoid CB1 Receptors, for Treating or Preventing Chronic Bronchitis or Chronic Obstructive Bronchopneumopathy” (SANOFI AVENTIS, priority 2004, published 2008).
# Read-outs that look alike come from different tables or passages of the source.
# How the values were obtained:
# [1] = STRATUS clinical study, nicotine addiction; cited from earlier work
# [2] = obese patients, clinical studies; cited from earlier work
# [3] = system: LPS-induced migration of neutrophil and mononuclear cells in the bronchoalveolar space; experiment: Migration of cells in the bronchoalveolar space after activation with bacterial LPS; format: in vivo; settings: mice, doses 0.3 to 30 mg/kg; for ED50: Mus musculus, i.p. 1 hour before 10 μG intratracheal LPS, bronchoalveolar lavage 24 hours after LPS
# Description: Migration of cells in the bronchoalveolar space after activation with bacterial LPS (lipopolysaccharide).
# Mice weighing 28 to 30 g are stimulated by means of an intratracheal exposure to 10 μG of LPS. 24 hours after the injection of LPS, the animals are anaesthetized with pentobarbital and a bronchoalveolar lavage is performed. The lavage fluids are recovered and are centrifuged, and the cells are then resuspended. The number of cells is counted, differentiating the eosinophil, neutrophil and mononuclear cells according to standard morphological criteria.
# The intratracheal injection of LPS induces a considerable increase in the number of mononuclear cells and neutrophils in the bronchoalveolar space of the mice.
structure (smiles),measurement,setting,value
"Cc1c(C(=O)NN2CCCCC2)nn(-c2ccc(Cl)cc2Cl)c1-c1ccc(Cl)cc1 [rimonabant, N-piperidino-5-(4-chlorophenyl)-1-(2,4-dichlorophenyl)-4-methylpyrazole-3-carboxamide]",effect on giving up smoking,[1],facilitates giving up smoking
same,"effect on hunger, calorie intake and body weight",[2],"reduces hunger, calorie intake, and the body weight of obese patients"
same,ED50,"[3]; Mononuclear cell, read-out: ED50, inhibition of migration of the mononuclear cells",1.9 mg/kg
same,ED50,"[3]; Neutrophil, read-out: effective dose 50 (ED50), inhibition of migration of the neutrophil cells",2.3 mg/kg
same,inhibition of migration of the neutrophil cells,[3]; i.p. 1 hour before intratracheal LPS,more than 80%
